# From US20260132132A1, “3A,4,5,6-TETRAHYDRO-1 H-PYRAZOLO[3,4-C]PYRIDIN-7(7AH)-ONE DERIVATIVES AS FACTOR XIIA INHIBITORS” (KALVISTA PHARMACEUTICALS LIMITED, priority 2022, published 2026)
# Target: T1, Human Factor XIIa (hFXIIa) (Homo sapiens, UniProt P00748)
# T1 construct: purchased Enzyme Research Laboratories
# T1 sequence (P00748 373-615 limits assumed): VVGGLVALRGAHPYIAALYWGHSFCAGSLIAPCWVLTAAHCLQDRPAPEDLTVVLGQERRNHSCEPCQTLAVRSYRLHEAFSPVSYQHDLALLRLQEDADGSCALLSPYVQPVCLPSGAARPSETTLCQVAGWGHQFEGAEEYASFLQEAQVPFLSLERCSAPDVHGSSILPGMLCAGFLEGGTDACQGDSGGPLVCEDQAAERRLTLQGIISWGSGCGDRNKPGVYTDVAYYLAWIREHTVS
# T1 sequence (P00748 20-372 partner limits assumed): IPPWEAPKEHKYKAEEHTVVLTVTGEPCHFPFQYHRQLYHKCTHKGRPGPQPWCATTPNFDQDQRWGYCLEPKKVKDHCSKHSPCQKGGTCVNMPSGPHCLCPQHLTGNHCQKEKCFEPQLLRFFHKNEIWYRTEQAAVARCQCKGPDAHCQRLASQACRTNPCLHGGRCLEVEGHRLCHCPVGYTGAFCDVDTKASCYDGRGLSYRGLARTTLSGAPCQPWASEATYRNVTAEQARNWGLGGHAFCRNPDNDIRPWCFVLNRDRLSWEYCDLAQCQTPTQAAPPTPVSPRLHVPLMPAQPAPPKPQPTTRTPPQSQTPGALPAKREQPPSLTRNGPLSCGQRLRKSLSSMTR
# Assay: Determination of Human Factor XIIa (hFXIIa) inhibition, fluorogenic substrate IC50 assay
# Assay type: biochemical
# Conditions: fluorogenic substrate H-DPro-Phe-Arg-AFC at Km, 25° C., read-out: Human FXIIa IC50
# Method: Determination of Human Factor XIIa (hFXIIa) inhibition
# The Km for the cleavage of the substrate by hFXIIa was determined by standard transformation of the Michaelis-Menten equation, with subsequent inhibition assays performed at substrate Km concentration.
row,Compound,IC50 [nM]
1,"CCOC(=O)c1nn(-c2cccc(Cl)c2)c2c1CCN(c1cccc(C(=O)N(C)C)c1)C2=O [Example 1196, ethyl 1-(3-chlorophenyl)-6-(3-(dimethylcarbamoyl)phenyl)-7-oxo-4,5,6,7-tetrahydro-1H-pyrazolo[3,4-c]pyridine-3-carboxylate]",3000 to 10000
2,"COCc1nn(-c2cccc(Cl)c2)c2c1CCN(c1ccc3c(c1)CN(CCO)CC3)C2=O [Example 1069, 1-(3-chlorophenyl)-6-(2-(2-hydroxyethyl)-1,2,3,4-tetrahydroisoquinolin-7-yl)-3-(methoxymethyl)-1,4,5,6-tetrahydro-7H-pyrazolo[3,4-c]pyridin-7-one]",300 to 1000
3,"CN(C(=O)c1cccc(N2CCc3c(C(=O)NCC4CC4)nn(-c4cccc(Cl)c4)c3C2=O)c1)C1CC1 [Example 1270, 1-(3-chlorophenyl)-6-(3-(cyclopropyl(methyl)carbamoyl)phenyl)-N-(cyclopropylmethyl)-7-oxo-4,5,6,7-tetrahydro-1H-pyrazolo[3,4-c]pyridine-3-carboxamide]",10000 to 40000
4,"CN1CCc2ccc(N3CCc4c(C(=O)NCC5COC5)nn(-c5cccc(Cl)c5)c4C3=O)cc2C1 [Example 1047, 1-(3-chlorophenyl)-6-(2-methyl-1,2,3,4-tetrahydroisoquinolin-7-yl)-N-(oxetan-3-ylmethyl)-7-oxo-4,5,6,7-tetrahydro-1H-pyrazolo[3,4-c]pyridine-3-carboxamide]",300 to 1000
5,"CN1CCc2ccc(N3CCc4c(C(=O)NC[C@@H]5COCCO5)nn(-c5cccc(Cl)c5)c4C3=O)cc2C1=O [Example 1249, (R)-N-((1,4-dioxan-2-yl)methyl)-1-(3-chlorophenyl)-6-(2-methyl-1-oxo-1,2,3,4-tetrahydroisoquinolin-7-yl)-7-oxo-4,5,6,7-tetrahydro-1H-pyrazolo[3,4-c]pyridine-3-carboxamide]",300 to 1000
6,"CN1CCc2ccc(N3CCc4c(C(=O)O)nn(-c5cccc(Cl)c5)c4C3=O)cc2C1=O [Example 1182, 1-(3-chlorophenyl)-6-(2-methyl-1-oxo-1,2,3,4-tetrahydroisoquinolin-7-yl)-7-oxo-4,5,6,7-tetrahydro-1H-pyrazolo[3,4-c]pyridine-3-carboxylic acid]",3000 to 10000
7,"CN(C)C(=O)c1csc(N2CCc3c(C(=O)NCC4CC4)nn(-c4cccc(Cl)c4)c3C2=O)c1 [Example 1295, 1-(3-chlorophenyl)-N-(cyclopropylmethyl)-6-(4-(dimethylcarbamoyl)thiophen-2-yl)-7-oxo-4,5,6,7-tetrahydro-1H-pyrazolo[3,4-c]pyridine-3-carboxamide]",10000 to 40000
8,"COC(=O)CN1CCc2ccc(N3CCc4c(C(=O)NCC5CC5)nn(-c5cccc(Cl)c5)c4C3=O)cc2C1 [Example 1094, methyl 2-(7-(1-(3-chlorophenyl)-3-((cyclopropylmethyl)carbamoyl)-7-oxo-1,4,5,7-tetrahydro-6H-pyrazolo[3,4-c]pyridin-6-yl)-3,4-dihydroisoquinolin-2(1H)-yl)acetate]",1000 to 3000
9,"O=C(NCC1CC1)c1nn(-c2cccc(Cl)c2)c2c1CCN(c1ccc3c(c1)CN(Cc1ccn[nH]1)CC3)C2=O [Example 1104, 6-(2-((1H-pyrazol-5-yl)methyl)-1,2,3,4-tetrahydroisoquinolin-7-yl)-1-(3-chlorophenyl)-N-(cyclopropylmethyl)-7-oxo-4,5,6,7-tetrahydro-1H-pyrazolo[3,4-c]pyridine-3-carboxamide]",300 to 1000
10,"COC1CN(CCO)Cc2cc(N3CCc4c(C(=O)NCC5CC5)nn(-c5cccc(Cl)c5)c4C3=O)ccc21 (centres unmarked) [Example 1191, 1-(3-chlorophenyl)-N-(cyclopropylmethyl)-6-(2-(2-hydroxyethyl)-4-methoxy-1,2,3,4-tetrahydroisoquinolin-7-yl)-7-oxo-4,5,6,7-tetrahydro-1H-pyrazolo[3,4-c]pyridine-3-carboxamide]",300 to 1000
11,"CN1CCc2ncc(N3CCc4c(C(=O)NCC5CC5)nn(-c5cccc(Cl)c5)c4C3=O)cc2C1 [Example 1040, 1-(3-Chlorophenyl)-N-(cyclopropylmethyl)-6-(6-methyl-5,6,7,8-tetrahydro-1,6-naphthyridin-3-yl)-7-oxo-4,5,6,7-tetrahydro-1H-pyrazolo[3,4-c]pyridine-3-carboxamide]",1000 to 3000

# The remaining lines, values ahead:
row,IC50 [nM],Compound
1,300 to 1000,"CN1CCc2ccc(N3CCc4c(C(=O)NCC56CC(CO)(CCO5)C6)nn(-c5cccc(Cl)c5)c4C3=O)cc2C1=O [Example 1283, 1-(3-chlorophenyl)-N-((5-(hydroxymethyl)-2-oxabicyclo[3.1.1]heptan-1-yl)methyl)-6-(2-methyl-1-oxo-1,2,3,4-tetrahydroisoquinolin-7-yl)-7-oxo-4,5,6,7-tetrahydro-1H-pyrazolo[3,4-c]pyridine-3-carboxamide]"
2,10 to 100,"Cc1cc(CNC(=O)c2nn(-c3cccc(Cl)c3)c3c2CCN(c2ccc4c(c2)C(=O)N(CCO)CCO4)C3=O)nn1C [Example 1288, 1-(3-Chlorophenyl)-N-[(1,5-dimethylpyrazol-3-yl)methyl]-6-[4-(2-hydroxyethyl)-5-oxo-2,3-dihydro-1,4-benzoxazepin-7-yl]-7-oxo-4,5-dihydropyrazolo[3,4-c]pyridine-3-carboxamide]"
3,300 to 1000,"CN1Cc2ccc(N3CCc4c(C(=O)NCc5ccccc5)nn(-c5cccc(Cl)c5)c4C3=O)cc2C1 [Example 1028, N-benzyl-1-(3-chlorophenyl)-6-(2-methylisoindolin-5-yl)-7-oxo-4,5,6,7-tetrahydro-1H-pyrazolo[3,4-c]pyridine-3-carboxamide]"
4,300 to 1000,"CN1CCc2ccc(N3CCc4c(C(=O)NC[C@H]5COCCO5)nn(-c5cccc(Cl)c5)c4C3=O)cc2C1=O [Example 1246, (S)-N-((1,4-dioxan-2-yl)methyl)-1-(3-chlorophenyl)-6-(2-methyl-1-oxo-1,2,3,4-tetrahydroisoquinolin-7-yl)-7-oxo-4,5,6,7-tetrahydro-1H-pyrazolo[3,4-c]pyridine-3-carboxamide]"
5,100 to 300,"CCN1CCc2ccc(N3CCc4c(C(=O)N[C@H]5CCOC5)nn(-c5cccc(Cl)c5)c4C3=O)cc2C1 [Example 1090, (S)-1-(3-chlorophenyl)-6-(2-ethyl-1,2,3,4-tetrahydroisoquinolin-7-yl)-7-oxo-N-(tetrahydrofuran-3-yl)-4,5,6,7-tetrahydro-1H-pyrazolo[3,4-c]pyridine-3-carboxamide]"
6,100 to 300,"CN1CCc2ccc(N3CCc4c(C(=O)NCc5ccoc5)nn(-c5cccc(Cl)c5)c4C3=O)cc2C1 [Example 1068, 1-(3-chlorophenyl)-N-(furan-3-ylmethyl)-6-(2-methyl-1,2,3,4-tetrahydroisoquinolin-7-yl)-7-oxo-4,5,6,7-tetrahydro-1H-pyrazolo[3,4-c]pyridine-3-carboxamide]"
7,10 to 100,"Cc1cccnc1CNC(=O)c1nn(-c2cccc(Cl)c2)c2c1CCN(c1ccc3c(c1)CN(CCO)CC3)C2=O [Example 1136, 1-(3-chlorophenyl)-6-(2-(2-hydroxyethyl)-1,2,3,4-tetrahydroisoquinolin-7-yl)-N-((3-methylpyridin-2-yl)methyl)-7-oxo-4,5,6,7-tetrahydro-1H-pyrazolo[3,4-c]pyridine-3-carboxamide]"
8,10 to 100,"Cc1cc(CNC(=O)c2nn(-c3cccc(Cl)c3)c3c2CCN(c2ccc4c(c2)CN(CCO)CC4)C3=O)ccn1 [Example 1171, 1-(3-chlorophenyl)-6-(2-(2-hydroxyethyl)-1,2,3,4-tetrahydroisoquinolin-7-yl)-N-((2-methylpyridin-4-yl)methyl)-7-oxo-4,5,6,7-tetrahydro-1H-pyrazolo[3,4-c]pyridine-3-carboxamide]"
9,10 to 100,"Cc1cc(CNC(=O)c2nn(-c3cccc(Cl)c3)c3c2CCN(c2ccc4c(c2)CN(C)CC4)C3=O)[nH]n1 [Example 1065, 1-(3-chlorophenyl)-6-(2-methyl-1,2,3,4-tetrahydroisoquinolin-7-yl)-N-((3-methyl-1H-pyrazol-5-yl)methyl)-7-oxo-4,5,6,7-tetrahydro-1H-pyrazolo[3,4-c]pyridine-3-carboxamide]"
10,100 to 300,"CN1CCc2ccc(N3CCc4c(C(=O)NC5CC6CCC5O6)nn(-c5cccc(Cl)c5)c4C3=O)cc2C1 (centres unmarked) [Example 1075, N-(7-oxabicyclo[2.2.1]heptan-2-yl)-1-(3-chlorophenyl)-6-(2-methyl-1,2,3,4-tetrahydroisoquinolin-7-yl)-7-oxo-4,5,6,7-tetrahydro-1H-pyrazolo[3,4-c]pyridine-3-carboxamide]"
11,100 to 300,"C[C@H](NC(=O)c1nn(-c2cccc(Cl)c2)c2c1CCN(c1ccc3c(c1)CN(CCO)CC3)C2=O)c1cccnc1 [Example 1131, (S)-1-(3-chlorophenyl)-6-(2-(2-hydroxyethyl)-1,2,3,4-tetrahydroisoquinolin-7-yl)-7-oxo-N-(1-(pyridin-3-yl)ethyl)-4,5,6,7-tetrahydro-1H-pyrazolo[3,4-c]pyridine-3-carboxamide]"
12,100 to 300,"CCCN1CCc2ccc(N3CCc4c(C(=O)NCC5CC5)nn(-c5cccc(Cl)c5)c4C3=O)cc2C1 [Example 1052, 1-(3-chlorophenyl)-N-(cyclopropylmethyl)-7-oxo-6-(2-propyl-1,2,3,4-tetrahydroisoquinolin-7-yl)-4,5,6,7-tetrahydro-1H-pyrazolo[3,4-c]pyridine-3-carboxamide]"
